The values that follow come from patent US20100261711A1, “SELECTIVE ANTICONVULSANT AGENTS AND THEIR USES” (WiSys Technology Foundation, priority 2009, published 2010).

Data set [1] deals with MES-induced seizures. Briefly: Maximal electroshock test (MES), mice. Format: in vivo. The following applies: Mice IP. As to the method:
(§1) The benzodiazepine derivative compounds selective for GABAa receptor subunits were tested for the ability to suppress seizures in several standard rat and mouse models of epilepsy. […] The standard models incorporated into anticonvulsant screening include the maximal electroshock test (MES), the subcutaneous Metrazol test (scMet), and evaluations of toxicity (TOX). The data for each condition is presented as a ratio of either the number of animals protected or toxic (loss of locomotor activity) over the number of animals tested at a given time point and dose.
(§2) The MES is a model for generalized tonic-clonic seizures and provides an indication of a compound's ability to prevent seizure spread when all neuronal circuits in the brain are maximally active. These seizures are highly reproducible and are electrophysiologically consistent with human seizures. For all tests based on MES convulsions, 60 Hz of alternating current (50 mA in mice, 150 in rats) is delivered for by corneal electrodes which have been primed with an electrolyte solution containing an anesthetic agent (0.5% tetracaine HCL). For Test 1, mice are tested at various intervals following doses of 30, 100 and 300 mg/kg of test compound given by ip injection of a volume of 0.01 mL/g. In Test 2, rats are tested after a dose of 30 mg/kg (po) in a volume of 0.04 mL/g. Test 8 uses varying doses administered via i.p. injection, again in a volume of 0.04 ml/g. […] In Antiepileptic Drugs, Levy, R. H. M., Meldrum, B. S., Eds.; Raven Press: New York, pp 99-110, 1995b.).
A general note: Protection in the maximal electroshock model is a classic sign of anticonvulsant action.

Data set [2] has as its system Metrazol-induced clonic seizures. Briefly: Subcutaneous Metrazol test (scMet), mice. The format is in vivo. The method, then: as §1
(§3) Subcutaneous injection of the convulsant Metrazol produces clonic seizures in laboratory animals. […] Animals are pretreated with various doses of the test compound (in a similar manner to the MES test, although a dose of 50 mg/kg (po) is the standard for Test 2 scMet). At the previously determined TPE of the test compound, the dose of Metrazol which will induce convulsions in 97% of animals (CD97: 85 mg/kg mice) is injected into a loose fold of skin in the midline of the neck. […] An episode of clonic spasms, approximately 3-5 seconds, of the fore and/or hindlimbs, jaws, or vibrissae is taken as the endpoint.

For data set [3], the system named is minimal muscular or neurological impairment. As to the kind of experiment: Toxicity (TOX), rotorod procedure, mice. The format is in vivo. The method, then:
as §1
(§4) To assess a compound's undesirable side effects (toxicity), animals are monitored for overt signs of impaired neurological or muscular function. […] When a mouse is placed on a rod that rotates at a speed of 6 rpm, the animal can maintain its equilibrium for long periods of time. The animal is considered toxic if it falls off this rotating rod three times during a 1-min period. In rats, minimal motor deficit is indicated by ataxia, which is manifested by an abnormal, uncoordinated gait. Rats used for evaluating toxicity are examined before the test drug is administered, since individual animals may have peculiarities in gait, equilibrium, placing response, etc., which might be attributed erroneously to the test substance.
For orientation: The rotarod test checks motor coordination on a turning rod.

In data set [4] the test system is Metrazol-induced clonic seizures. As to the kind of experiment: Subcutaneous Metrazol test (scMet), rats. Format: in vivo. As to the method: as §1, §3
Data set [5] deals with minimal motor deficit (ataxia, abnormal gait). Briefly: Toxicity (TOX), minimal motor deficit, rats. The format is in vivo. The following applies: for TOX (Rotorod Test), animals toxic/tested: Rat IP, 100 mg/kg; for Tox, animals toxic/tested: Rat PO, 50 mg/kg. The method, then: as §1, §4
Data set [6] addresses T1, GABAA/α1 (α1β3γ2 GABAA receptors) (Homo sapiens, UniProt P14867+P18507).
T1 construct: expressed in transfected cells
Briefly: Competitive binding assay, [3H]flunitrazepam. The following applies: Binding Affinity at GABAA/α1, αxβ3γ2, [3H]flunitrazepam competition. As to the method:
(§5) The GABAA subunit selectivity of several compounds prepared as described above were determined using competitive binding assays. […] Membranes were harvested with a Brandel cell harvester followed by three ice-cold washes onto polyethyleneimine-pretreated (0.3%) Whatman GF/C filters. Filters were dried overnight and then soaked in Ecoscint, a liquid scintillation cocktail (National Diagnostics; Atlanta, Ga.). Bound radioactivity was quantified by liquid scintillation counting. Membrane protein concentrations were determined using an assay kit from Bio-Rad (Hercules, Calif.) with bovine serum albumin as the standard.

Data set [7] concerns the target T2, GABAA/α2 (α2β3γ2 GABAA receptors) (Homo sapiens, UniProt P18507+P47869).
T2 construct: expressed in transfected cells
As to the kind of experiment: Competitive binding assay, [3H]flunitrazepam. The following applies: Binding Affinity at GABAA/α2, αxβ3γ2, [3H]flunitrazepam competition. As to the method: as §5

Data set [8] deals with T3, GABAA/α5 (α5β3γ2 GABAA receptors) (Homo sapiens, UniProt P18507+P31644).
T3 construct: expressed in transfected cells
Briefly: Competitive binding assay, [3H]flunitrazepam. To be noted: Binding Affinity at GABAA/α5, αxβ3γ2, [3H]flunitrazepam competition. The method, then:
as §5

Data set [9] has as its target T4, GABAA/α6 (α6β3γ2 GABAA receptors) (Homo sapiens, UniProt P18507+Q16445).
T4 construct: expressed in transfected cells
Briefly: Competitive binding assay, [3H]flunitrazepam. As to the method: as §5

Data set [10] relates to MES-induced seizures. As to the kind of experiment: Maximal electroshock test (MES), rats. Format: in vivo. The following applies: Rat PO, 50 mg/kg. As to the method:
as §1, §2

The next data set concerns 6 Hz psychomotor seizure. As to the kind of experiment: Minimal clonic seizure (6 Hz) test. The format is in vivo. The following applies: Mice IP, 44 mA, 0.5 Hr. From the text: Like the maximal electroshock (MES) test, the minimal clonic seizure (6 Hz) test is used to assess a compound's efficacy against electrically-induced seizures but uses a lower frequency (6 Hz) and longer duration of stimulation (3 s). Test compounds are pre-administered to mice via ip injection. […] Untreated mice will display seizures characterized by a minimal clonic phase followed by stereotyped, automatistic behaviors described originally as being similar to the aura of human subjects with partial seizures. Animals not displaying this behavior are considered protected (Table 10).

Setting [11] is: Mice, 50 mg/kg PO (Mice IP), 0.5 hr.
[12] abbreviates: Mice, 50 mg/kg PO (Mice IP), 4.0 hr.

Broadly, the melting point is the temperature, or range, at which the solid turns liquid. The term Ki denotes the equilibrium dissociation constant of an inhibitor or competing ligand from its target. A low value points to a stronger hold on the target. As usually defined, the ED50 is the midpoint of the dose-response relation.

On to `CC(C)(C)OC(=O)c1ncn2c1CN=C(c1ccccc1)c1cc(Br)ccc1-2`, for which the melting point lay in the range of 222 to 223 °C.

As for `C[Si](C)(C)C#Cc1ccc2c(c1)C(c1ccccc1)=NCc1c(C(=O)OCC(F)(F)F)ncn1-2`, the melting point lay within 107 to 110 °C.

In turn, `CCOC(=O)c1ncn2c1CN=C(c1ccccn1)c1cc(C#C[Si](C)(C)C)ccc1-2` showed a melting point of 205 to 206 °C.

As for `C#Cc1ccc2c(c1)C(c1ccccc1)=NCc1c(C(=O)OCC)ncn1-2` [XHe-II-053 (7), Ethyl 8-acetylenyl-6-phenyl-4H-benzo[f]imidazo[1,5-a][1,4]diazepine-3-carboxylate], the “MES, animals protected/tested” value is reported as 0/3 in the data set with MES-induced seizures [1] (100 mg/kg, 0.5 hr) and 0/3 in the data set on MES-induced seizures [1] (100 mg/kg, 4.0 hr). Moreover, the “scMet, animals protected/tested” value was 0/1 in data set [2] (Mice IP, 100 mg/kg, 0.5 hr); 0/1 in data set [2] (Mice IP, 100 mg/kg, 4.0 hr); 1/4 in data set [2] (setting [11]); 0/4 in data set [2] (setting [12]); 1/4 in data set [4] (Rat IP, 100 mg/kg, 0.5 hr); 0/4 in [4] (Rat IP, 100 mg/kg, 4.0 hr). In addition, the “TOX (Rotorod Test), animals toxic/tested” value is 0/8 in data set [3] (Mice IP, 100 mg/kg, 0.5 hr); 0/4 in data set [3] (Mice IP, 100 mg/kg, 4.0 hr); 2/4 in [3] (setting [11]); 0/4 in data set [3] (setting [12]); 2/4 in data set [5] (0.5 hr); 0/4 in data set [5] (4.0 hr).

`C#Cc1ccc2c(c1)C(c1ccccn1)=NCC(=O)N2C` gave a melting point of 190 to 191 °C.

`CNC1=Nc2ccc(Br)cc2C(c2ccccc2)=NC1` came in with a melting point of 234 to 235 °C.

The molecule `O=C(OCC(Cl)(Cl)Cl)c1ncn2c1CN=C(c1ccccc1)c1cc(Br)ccc1-2` showed a melting point of 113 to 116 °C.

The molecule `O=C(OCC(F)(F)F)c1ncn2c1CN=C(c1ccccc1)c1cc(Br)ccc1-2` had a melting point of 202 to 204 °C.

In turn, `C[Si](C)(C)C#Cc1ccc2c(c1)C(c1ccccn1)=NCC(=O)N2` displayed a melting point of 242 to 243 °C.

The molecule `CN1C(=O)CN=C(c2ccccn2)c2cc(C#C[Si](C)(C)C)ccc21` had a melting point of 194 to 195 °C.

In turn, `CNC1=Nc2ccc(C#C[Si](C)(C)C)cc2C(c2ccccc2)=NC1` registered a melting point of 210 to 211 °C.

With `CCOC(=O)c1ncn2c1CN=C(c1ccccc1)c1cc(Cl)ccc1-2`, the melting point was 174 to 175 °C.

Turning to `O=C(OCC(F)(F)F)c1ncn2c1CN=C(c1ccccc1F)c1cc(Br)ccc1-2` [JYI-49, Trifluoroethyl-8-bromo-6-(2′-fluorophenyl)-4H-benzo[f]imidazo[1,5-a][1,4]diazepine-3-carboxylate], the inhibition constant (Ki) in [6] turned out to be 1.87 nM; in data set [7], 2.38 nM; in data set [8] it was 6.7 nM; in data set [9] it was 3390 nM.

On to `C#Cc1ccc2c(c1)C(c1ccccc1)=N[C@@H](C)c1nnc(C)n1-2` [SH-TS-CH3 (143), (4S)-8-Ethynyl-1,4-dimethyl-6-phenyl-4H-benzo[f][1,2,4]triazolo[4,3-a][1,4]diazepine], for which the inhibitory constant (Ki) in data set [6] turned out to be 107 nM; in data set [7], 50.1 nM; in data set [8], 8.1 nM. Besides, the “MES, animals protected/tested” value was 0/4 with MES-induced seizures [1] (3 mg/kg, 0.5 Hr); 0/4 in the data set on MES-induced seizures [1] (10 mg/kg, 0.5 Hr); 1/1 in the data set with MES-induced seizures [1] (30 mg/kg, 0.5 Hr); 0/1 in the data set on MES-induced seizures [1] (30 mg/kg, 4.0 Hr); 3/3 in the data set on MES-induced seizures [1] (100 mg/kg, 0.5 hr); 0/3 in the data set with MES-induced seizures [1] (100 mg/kg, 4.0 hr). For the same molecule, the “MES, animals protected/tested” value with MES-induced seizures [1] (300 mg/kg, 0.5 Hr) is recorded as 1/1; in the data set on MES-induced seizures [1] (300 mg/kg, 4.0 Hr), 1/1; with MES-induced seizures [10] (0.5 h), 0/4; in the data set with MES-induced seizures [10] (1.0 h), 0/4; in the data set with MES-induced seizures [10] (2.0 h) it was 0/4; in the data set with MES-induced seizures [10] (4.0 h) it was 0/4. Moreover, the “MES, animals protected/tested” value in the data set with MES-induced seizures [10] ([…]) is 0/4. Besides, the “scMet, animals protected/tested” value in data set [2] (Mice IP, 3 mg/kg, 0.5 Hr) is listed as 2/4; in data set [2] (Mice IP, 10 mg/kg, 0.5 Hr) it was 4/4; in data set [2] (Mice IP, 30 mg/kg, 0.5 Hr), 1/1; in data set [2] (Mice IP, 30 mg/kg, 4.0 Hr), 0/1; in [2] (Mice IP, 100 mg/kg, 0.5 hr), 1/1; in data set [2] (Mice IP, 100 mg/kg, 4.0 hr), 1/1. The “scMet, animals protected/tested” value in [2] (Mice IP, 300 mg/kg, 0.5 Hr) is recorded as 1/1; in data set [2] (Mice IP, 300 mg/kg, 4.0 Hr) it was 1/1; in data set [4] (Rat PO, 50 mg/kg, 0.5 h) it was 1/4; in [4] (Rat PO, 50 mg/kg, 1.0 h), 0/4^5; in data set [4] (Rat PO, 50 mg/kg, 2.0 h), 2/4^25; in data set [4] (Rat PO, 50 mg/kg, 4.0 h), 0/4^5. For the same molecule, the “scMet, animals protected/tested” value in data set [4] (Rat PO, 50 mg/kg, […]) is 0/4^5. The “TOX (Rotorod Test), animals toxic/tested” value in data set [3] (Mice IP, 3 mg/kg, 0.5 Hr) is recorded as 0/8; in data set [3] (Mice IP, 10 mg/kg, 0.5 Hr), 5/8^14; in data set [3] (Mice IP, 30 mg/kg, 0.5 Hr) it was 4/4^14; in data set [3] (Mice IP, 30 mg/kg, 4.0 Hr), 0/2; in [3] (Mice IP, 100 mg/kg, 0.5 hr), 8/8^14; in data set [3] (Mice IP, 100 mg/kg, 4.0 hr), 0/4. The “TOX (Rotorod Test), animals toxic/tested” value is 4/4^13 in data set [3] (Mice IP, 300 mg/kg, 0.5 Hr) and 2/2^14 in data set [3] (Mice IP, 300 mg/kg, 4.0 Hr). Also, the “Tox, animals toxic/tested” value in data set [5] (0.5 h), in data set [5] (1.0 h), in data set [5] (2.0 h), in [5] (4.0 h) and in data set [5] ([…]) was 0/4 throughout. In addition, the “6 Hz ED50 Biological Response, protected/tested” value was 4/8 in the data set on 6 Hz psychomotor seizure (3 mg/kg), 5/8 with 6 Hz psychomotor seizure (6 mg/kg) and 8/8 with 6 Hz psychomotor seizure (10 mg/kg). The ED50 in the data set with 6 Hz psychomotor seizure (Mus musculus, ip, 0.5 h, read-out: ED50 (6 Hz)) was 3.98 mg/kg.
